The values that follow come from US20250177425A1, “SAIKOSAPONIN C AS COMPOSITION FOR TREATING OR PREVENTING AGE-RELATED VASCULAR DISEASES INCLUDING ARTERIOSCLEROSIS” (AGINGTARGET, INC., priority 2022, published 2025).

Common to all, as to format: cell-based, human
The subject of one experiment is HUVEC. As to the kind of experiment: Mechanism study: SA-β-gal staining with NOS and Sirt1 inhibitors. The conditions noted are these: Saikosaponin C 20 μM, 33 mM high glucose 72 hours. How it is done: (§1) Similar to Experimental Example 1, a high-fat diet evaluation system at the cellular level was established. Specifically, […], which are vascular endothelial cells, were pretreated with Saikosaponin C at a concentration of 20 μM for 2 hours, and then treated with high glucose at a concentration of 33 mM for 72 hours (for SA-β-gal staining) or 36 hours (for the analysis of enzyme activity of NOS and Sirt1). Then, SA-β-gal staining, NOS enzyme activity, and Sirt1 enzyme activity were analyzed. To analyze whether or not NOS and Sirt1 protein are involved in the anti-vascular aging effect of Saikosaponin C and the relationship between NOS and Sirt1 protein, L-NG-nitro arginine methyl ester (L-NAME) (5 mM), an inhibitor of NOS, and EX-527 (10 μM), an inhibitor of Sirt1 protein, were used. […] The senescence of vascular endothelial cells was assessed through intracellular SA-β-gal staining (FIG. 8A). The activities of NOS (FIG. 8B) and Sirt1 protein (FIG. 8C) were measured using the NOS Activity Assay Kit and the Sirt1 Activity Assay Kit, respectively.

Another experiment concerns NOS in HUVEC. The experiment in a line: Mechanism study: NOS Activity Assay Kit with NOS and Sirt1 inhibitors. The following applies: Saikosaponin C 20 μM, 33 mM high glucose 36 hours. The method, then:
as §1

The next experiment relates to Sirt1 in HUVEC. The experiment in a line: Mechanism study: Sirt1 Activity Assay Kit with NOS inhibitor. The conditions noted are these: L-NAME 5 mM, Saikosaponin C 20 μM, 33 mM high glucose 36 hours. How it is done:
as §1

Regarding `COC(=O)[C@@H](N)CCCNC(=N)N[N+](=O)[O-]` [L-NAME, L-NG-nitro arginine methyl ester], the “anti-vascular aging effect of Saikosaponin C (SA-β-gal) after inhibitor pretreatment” value with HUVEC (L-NAME 5 mM) is on record as “significantly abolished”. Also, in the experiment with NOS in HUVEC (L-NAME 5 mM), the “Saikosaponin C-mediated recovery of the reduction in NOS activity caused by high glucose” value is recorded as “abolished”. Besides, the “Saikosaponin C-mediated recovery of the reduction in Sirt1 activity caused by high glucose” value in the experiment on Sirt1 in HUVEC is “did not abolish”.

Consider `NC(=O)C1CCCc2c1[nH]c1ccc(Cl)cc21` (centres unmarked) [EX-527], for which the “anti-vascular aging effect of Saikosaponin C (SA-β-gal) after inhibitor pretreatment” value in the experiment on HUVEC (EX-527 10 μM) was “significantly abolished”. Besides, the “Saikosaponin C-mediated recovery of the reduction in NOS activity caused by high glucose” value with NOS in HUVEC (EX-527 10 μM) is given as “abolished”.
